Data on one substance can be found in patent US20210338717A1, “NANOPARTICLE DELIVERY TO A TARGET TISSUE” (THE GOVERNING COUNCIL OF THE UNIVERSITY OF TORONTO, priority 2020, published 2021).

This series relates to 4T1 tumour-bearing BALB/c mice. The conditions noted are these: mouse, in vivo.

Description: 6 week old female BALB/c mice were purchased (Charles River Laboratory BALB/cAnNCrl). 4T1 cells were a generous gift from Dr. Reginald Gorczynski. 4T1 tumours were induced as described^3 into 7-week old mice. Briefly, 1 million 4T1 cells between passages 3-20 in 100 μL of serum-free, antibiotic-free RPMI (Wisent Bioproducts 350-000-EL) were injected into the right inguinal 5th mammary fat pad using a 25G needle. The needle was inserted 1 mm lateral and 3 mm caudal to the nipple, and advanced towards the nipple by 2 mm. Mice were injected with nanoparticles 2 weeks post-induction unless specified otherwise. We aimed to investigate smaller tumours to minimize confounding by the necrotic core and maximize quantification accuracy. Tumour growth was homogeneous (average 14-day tumour size and standard deviation: 0.38±0.15 g). Tumours were size-matched between treatment groups to enable %ID and %ID/g comparisons between groups.
Mice were euthanized by isoflurane overdose followed by cervical dislocation at 2, 8, 24, or 72 hours post nanoparticle injection. Mouse organs were collected and weighed into borosilicate tubes for analysis by ICPMS^5,6. Collected organs included: heart, lungs, liver, spleen, stomach (with diet), large intestines (with diet), small intestines (with diet), kidneys, uterus, dorsal skin, and cardiac blood. For endpoint cardiac blood, mice hearts were quickly exposed by dissecting through the thoracic cavity. A 25G needle/1 mL syringe was inserted into the right ventricle of the beating heart. ˜600 μL cardiac blood was drawn then transferred to a glass tube. For reference, a control tube containing a known proportion of the injected dose was also prepared in a borosilicate tube. 800 μL of 16 M nitric acid (Caledon 7525-1-29) was added to each sample. They were digested at 80° C. in a water bath for 1 hour, and then digested overnight at 50° C. The next morning, 200 μL of 12 M hydrochloric acid (Caledon 6025-1-29) was added and the samples were digested at 80° C. for ≥1 hour. Samples were collected into polypropylene 50 mL centrifuge tubes (Biomart 110708) and then diluted to 40 mL in deionized water for a final acid concentration of 2.5% (v/v). 10 mL of these samples were then filtered through a 0.22 μm PES filter (Fisher Scientific SLGP033RS) into 15 mL centrifuge tubes (Sarstedt 62.554.002). A standard curve for elemental gold and magnesium were prepared by dilution in 2% (v/v) nitric acid and 0.5% (v/v) hydrochloric acid, with concentrations ranging from 0.0001 to 100 mg/mL, with a reference blank of 0. All samples were then quantified using a NexION 350x ICP-MS (PerkinElmer) with mass analyzer set to magnesium Mg 24, iridium Ir 192, and gold Au 197. A 500 μL injection loop was used, and each sample was mixed with carrier solution (2% (v/v) nitric acid) and iridium internal standard (1 μg/mL) before injection into the analyzer. Percent injected dose was the measured gold mass of each sample divided by the measured gold mass of the injected dose.

For the substance gold nanoparticles, the “increase in absolute accumulation in the liver” value turned out to be 6000 times; the “increase in absolute nanoparticle accumulation in tumour” value is recorded as 7,300,000 times; the liver accumulation amounted to 16 % injected dose/gram; the “liver accumulation, large single dose vs same dose divided” value is on record as “reduced”. The tumour accumulation is 16 % injected dose/gram and the “tumour delivery, large single dose vs same dose divided” value is “increased”.
